Reference: ChEMBL document CHEMBL5625220, “Discovery of anti-neuroinflammatory agents from 1,4,5,6-tetrahydrobenzo[2,3]oxepino[4,5-d]pyrimidin-2-amine derivatives by regulating microglia polarization” (Eur J Med Chem, 2023)
Calls of active or inactive are those of the source. The rule behind the calls is not given here.

Legend:
[1] = system: BV-2; experiment: Anti-inflammatory activity in mouse BV-2 cells assessed as inhibition of LPS-induced TNF-alpha production at 5 uM preincubated with LPS for 2 hrs followed by compound addition and measured after 24 hrs by ELISA relative to control; format: functional
[2] = Cytotoxicity against mouse BV-2 cells assessed as survival rate at 5 uM incubated for 24 hrs by CCK8 assay relative to control; format: toxicity, cell-based; conditions: read-out: Survival
[3] = system: BV-2; experiment: Anti-inflammatory activity in mouse BV-2 cells assessed as inhibition of LPS-induced TNF-alpha production at 2.5 ug/ml preincubated with LPS for 2 hrs followed by compound addition and measured after 24 hrs by ELISA relative to control; format: functional
[4] = target: NACHT, LRR and PYD domains-containing protein 3 (Mus musculus) (UniProt Q8R4B8); experiment: Inhibition of NLRP3 inflammasome formation in LPS-stimulated mouse BV-2 cells assessed as downregulation of ASC protein expression preincubated with LPS for 2 hrs followed by compound addition and measured after 24 hrs by Western blot analysis; format: cell-based
[5] = target: NACHT, LRR and PYD domains-containing protein 3 (Mus musculus) (UniProt Q8R4B8); experiment: Inhibition of NLRP3 inflammasome formation in LPS-stimulated mouse BV-2 cells assessed as downregulation of NLRP3 protein expression preincubated with LPS for 2 hrs followed by compound addition and measured after 24 hrs by Western blot analysis; format: cell-based
[6] = system: BV-2; experiment: Effect on IL-10 expression in mouse BV-2 cells incubated for 24 hrs by ELISA; format: functional, cell-based
[7] = target: NACHT, LRR and PYD domains-containing protein 3 (Mus musculus) (UniProt Q8R4B8); experiment: Inhibition of NLRP3 inflammasome formation in LPS-stimulated mouse BV-2 cells assessed as downregulation of caspase-1 protein expression preincubated with LPS for 2 hrs followed by compound addition and measured after 24 hrs by Western blot analysis; format: cell-based
[8] = system: BV-2; experiment: (§1) Anti-neuroinflammatory activity in mouse BV-2 cells assessed as microglial polarization into M2 phenotype by measuring increase in CD206 expression preincubated with LPS for 2 hrs followed by compound addition and measured after 24 hrs by immunofluorescence staining based confocal microscopic analysis; format: functional, cell-based
[9] = system: BV-2; experiment: as §1, with “decrease” for “increase”, “iNOS” for “CD206”; format: functional, cell-based
[10] = system: BV-2; experiment: Effect on NLRP3 expression in mouse BV-2 cells incubated for 24 hrs by Western blot analysis; format: functional, cell-based
[11] = system: BV-2; experiment: Anti-neuroinflammatory activity in LPS-induced mouse BV-2 cells assessed as decrease in CD86 labeled microglial cells preincubated with LPS for 2 hrs followed by compound addition and measured after 24 hrs by flow cytometric analysis; format: functional, cell-based
[12] = system: Mus musculus; experiment: Anti-inflammatory activity in cuprizone fed C57BL/6 mouse model assessed as decrease in iNOS expression in corpus callosum at 5 mg/kg, ip pretreated with cuprizone for 6 weeks followed by compound administration for 2 weeks by immunofluorescence staining based confocal microscopic analysis; format: functional, organism-based
[13] = system: BV-2; experiment: Effect on ASC expression in mouse BV-2 cells incubated for 24 hrs by Western blot analysis; format: functional, cell-based
[14] = system: BV-2; experiment: Downregulation of PKM2 expression in LPS-stimulated mouse BV-2 cells preincubated with LPS for 2 hrs followed by compound addition and measured after 24 hrs by immunofluorescence staining based confocal microscopic analysis; format: functional, cell-based
[15] = system: BV-2; experiment: Anti-neuroinflammatory activity in LPS-induced mouse BV-2 cells assessed as decrease in IL-1beta secretion preincubated with LPS for 2 hrs followed by compound addition and measured after 24 hrs by ELISA; format: functional, cell-based
[16] = system: BV-2; experiment: Anti-neuroinflammatory activity in LPS-induced mouse BV-2 cells assessed as decrease in IL-18 secretion preincubated with LPS for 2 hrs followed by compound addition and measured after 24 hrs by ELISA; format: functional, cell-based
[17] = system: BV-2; experiment: Induction of microglial polarization to M2 phenotype in mouse BV-2 cells assessed as increase in number of M2 phenotype microglial cells incubated for 24 hrs by flow cytometric analysis; format: functional, cell-based
[18] = system: BV-2; experiment: Effect on TNF-alpha expression in mouse BV-2 cells incubated for 24 hrs by ELISA; format: functional, cell-based
[19] = system: BV-2; experiment: Downregulation of PKM2 expression in LPS-stimulated mouse BV-2 cells preincubated with LPS for 2 hrs followed by compound addition and measured after 24 hrs by Western blot analysis; format: functional, cell-based
[20] = system: Mus musculus; experiment: Anti-inflammatory activity in cuprizone fed C57BL/6 mouse model assessed as increase in CD206 expression in corpus callosum at 5 mg/kg, ip pretreated with cuprizone for 6 weeks followed by compound administration for 2 weeks by immunofluorescence staining based confocal microscopic analysis; format: functional, organism-based
[21] = system: BV-2; experiment: Effect on IL-1beta expression in mouse BV-2 cells incubated for 24 hrs by ELISA; format: functional, cell-based
[22] = system: BV-2; experiment: Anti-neuroinflammatory activity in LPS-induced mouse BV-2 cells assessed as decrease in iNOS labeled microglial cells preincubated with LPS for 2 hrs followed by compound addition and measured after 24 hrs by flow cytometric analysis; format: functional, cell-based
[23] = system: BV-2; experiment: Effect on caspase-1 expression in mouse BV-2 cells incubated for 24 hrs by Western blot analysis; format: functional, cell-based
[24] = system: Mus musculus; experiment: Anti-inflammatory activity in cuprizone fed C57BL/6 mouse model assessed as increase in remyelination in corpus callosum at 5 mg/kg, ip pretreated with cuprizone for 6 weeks followed by compound administration for 2 weeks by LFB staining based analysis; format: functional, organism-based
[25] = system: BV-2; experiment: Effect on IL-18 expression in mouse BV-2 cells incubated for 24 hrs by ELISA; format: functional, cell-based
[26] = system: BV-2; experiment: Anti-neuroinflammatory activity in LPS-induced mouse BV-2 cells assessed as increase in Arg-1 labeled microglial cells preincubated with LPS for 2 hrs followed by compound addition and measured after 24 hrs by flow cytometric analysis; format: functional, cell-based
[27] = system: BV-2; experiment: Anti-neuroinflammatory activity in LPS-induced mouse BV-2 cells assessed as increase in IL-10 secretion preincubated with LPS for 2 hrs followed by compound addition and measured after 24 hrs by ELISA; format: functional, cell-based
[28] = system: BV-2; experiment: Anti-neuroinflammatory activity in LPS-induced mouse BV-2 cells assessed as increase in CD206 labeled microglial cells preincubated with LPS for 2 hrs followed by compound addition and measured after 24 hrs by flow cytometric analysis; format: functional, cell-based
[29] = system: BV-2; experiment: Anti-neuroinflammatory activity in LPS-induced mouse BV-2 cells assessed as decrease in TNF-alpha secretion preincubated with LPS for 2 hrs followed by compound addition and measured after 24 hrs by ELISA; format: functional, cell-based
[30] = system: BV-2; experiment: Induction of microglial polarization to M2 phenotype in mouse BV-2 cells assessed as decrease in number of M1 phenotype microglial cells incubated for 24 hrs by flow cytometric analysis; format: functional, cell-based

Sequence of NACHT, LRR and PYD domains-containing protein 3 (Mus musculus) (Q8R4B8 whole entry, the tested form may be a part): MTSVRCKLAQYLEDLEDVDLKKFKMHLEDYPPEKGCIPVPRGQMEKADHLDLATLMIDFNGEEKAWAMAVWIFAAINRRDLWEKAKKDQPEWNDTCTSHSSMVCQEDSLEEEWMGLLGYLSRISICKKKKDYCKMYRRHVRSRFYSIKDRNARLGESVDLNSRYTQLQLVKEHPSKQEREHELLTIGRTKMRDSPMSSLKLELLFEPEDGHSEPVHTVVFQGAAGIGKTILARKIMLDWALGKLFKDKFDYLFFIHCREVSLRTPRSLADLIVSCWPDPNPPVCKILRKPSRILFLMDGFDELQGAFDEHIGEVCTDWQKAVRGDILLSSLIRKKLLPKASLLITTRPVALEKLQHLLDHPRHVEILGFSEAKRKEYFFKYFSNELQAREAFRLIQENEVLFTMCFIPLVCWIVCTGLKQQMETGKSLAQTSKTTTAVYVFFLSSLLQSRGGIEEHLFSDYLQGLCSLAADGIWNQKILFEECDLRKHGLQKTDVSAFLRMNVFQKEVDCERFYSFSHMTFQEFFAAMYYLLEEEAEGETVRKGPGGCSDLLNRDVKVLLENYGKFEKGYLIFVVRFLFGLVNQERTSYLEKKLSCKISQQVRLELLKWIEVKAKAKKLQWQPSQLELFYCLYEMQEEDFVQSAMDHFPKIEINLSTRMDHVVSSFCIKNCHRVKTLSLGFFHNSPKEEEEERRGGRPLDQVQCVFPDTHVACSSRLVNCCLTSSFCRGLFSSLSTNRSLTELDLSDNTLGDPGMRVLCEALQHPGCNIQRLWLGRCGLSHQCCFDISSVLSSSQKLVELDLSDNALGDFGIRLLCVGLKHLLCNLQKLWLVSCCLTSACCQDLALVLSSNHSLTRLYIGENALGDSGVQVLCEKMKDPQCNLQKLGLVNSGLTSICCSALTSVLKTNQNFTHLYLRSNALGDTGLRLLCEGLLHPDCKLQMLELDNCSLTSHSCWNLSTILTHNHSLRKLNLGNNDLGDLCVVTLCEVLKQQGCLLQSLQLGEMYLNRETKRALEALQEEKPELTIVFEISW

SMILES: COc1cc(OC)c2c(c1)OCCC1=C2NC(N)=NC1c1cc(F)ccc1F (stereo unspecified)
- inhibition at 5 µM [1]: 73.5%
- viability at 24 h, 5 µM [2]: 156%

SMILES: COc1cc(OC)c2c(c1)OCCC(C(O)c1cccc(C(F)(F)F)c1)C2=O (stereo unspecified)
- inhibition at 5 µM [1]: 65.1%
- viability at 24 h, 5 µM [2]: 150%

SMILES: COc1cc(OC)c2c(c1)OCCC1=C2NC(N)=NC1c1cccc(C(F)(F)F)c1 (stereo unspecified)
- inhibition at 5 µM [1]: 82.6%
- viability at 24 h, 5 µM [2]: 109%

SMILES: COc1cc(OC)c2c(c1)OCC/C(=C\c1ccc(F)cc1C(F)(F)F)C2=O
- inhibition at 5 µM [1]: 69.5%
- viability at 24 h, 5 µM [2]: 114%

SMILES: S=C(S)N1CCCC1 [PYRROLIDINE DITHIOCARBAMATE]
- inhibition at 2.5 µg/mL [3]: 58.4%

SMILES: COc1cc(OC)c2c(c1)OCCC1=C2NC(N)=NC1c1cccc(C(F)(F)F)c1F (stereo unspecified)
- inhibition at 5 µM [1]: 91.5%
- viability at 24 h, 5 µM [2]: 111%

SMILES: COc1cc(OC)c2c(c1)OCCC1=C2NC(N)=NC1c1ccccc1C(F)(F)F (stereo unspecified)
- inhibition at 5 µM [1]: 70.2%
- viability at 24 h, 5 µM [2]: 113%

SMILES: COc1cc(OC)c2c(c1)OCC/C(=C\c1c(F)cccc1F)C2=O
- inhibition at 5 µM [1]: 62.5%
- viability at 24 h, 5 µM [2]: 146%

SMILES: COc1cc(OC)c2c(c1)OCC/C(=C\c1ccc(C(F)(F)F)cc1)C2=O
- inhibition at 5 µM [1]: 65.8%
- viability at 24 h, 5 µM [2]: 145%

SMILES: COc1cncc(-c2nc(N)nc3c2CCc2ccc(F)cc2-3)c1
- inhibition at 5 µM [1]: 62.9%
- viability at 24 h, 5 µM [2]: 99.3%

SMILES: COc1cc(OC)c2c(c1)OCC/C(=C\c1cccc(F)c1C(F)(F)F)C2=O
- inhibition at 5 µM [1]: 68.3%
- viability at 24 h, 5 µM [2]: 120%

SMILES: COc1cc(OC)c2c(c1)OCCC1=C2NC(N)=NC1c1ccc(F)cc1C(F)(F)F (stereo unspecified)
- inhibition at 5 µM [1]: 66.4%
- viability at 24 h, 5 µM [2]: 87.4%

SMILES: COc1cc(OC)c2c(c1)OCC/C(=C\c1cccc(C(F)(F)F)c1F)C2=O
- inhibition at 5 µM [1]: 88.7%
- viability at 24 h, 5 µM [2]: 117%

SMILES: COc1cc(OC)c2c(c1)OCCC1=C2NC(N)=NC1c1c(F)cccc1F (stereo unspecified)
- inhibition at 5 µM [1]: 67.4%
- viability at 24 h, 5 µM [2]: 126%

SMILES: COc1cc(OC)c2c(c1)OCC/C(=C\c1c(F)cccc1C(F)(F)F)C2=O
- inhibition at 5 µM [1]: 36.8%
- viability at 24 h, 5 µM [2]: 116%

SMILES: COc1cc(OC)c2c(c1)OCC/C(=C\c1ccc(F)cc1)C2=O
- inhibition at 5 µM [1]: 46.3%
- viability at 24 h, 5 µM [2]: 148%

SMILES: COc1cc(OC)c2c(c1)OCC/C(=C\c1cc(F)cc(F)c1)C2=O
- inhibition at 5 µM [1]: 73.6%
- viability at 24 h, 5 µM [2]: 150%

SMILES: COc1cc(OC)c2c(c1)OCCC1=C2NC(N)=NC1c1c(F)cccc1C(F)(F)F (stereo unspecified)
- inhibition at 5 µM [1]: 65.7%
- viability at 24 h, 5 µM [2]: 124%

SMILES: COc1cc(OC)c2c(c1)OCC/C(=C\c1cccc(F)c1)C2=O
- inhibition at 5 µM [1]: 69.3%
- viability at 24 h, 5 µM [2]: 146%

SMILES: COc1cc(OC)c2c(c1)OCC/C(=C\c1cc(F)ccc1F)C2=O
- inhibition at 5 µM [1]: 74.1%
- viability at 24 h, 5 µM [2]: 168%

SMILES: COc1cc(OC)c2c(c1)OCC/C(=C\c1ccccc1C(F)(F)F)C2=O
- inhibition at 5 µM [1]: 74.3%
- viability at 24 h, 5 µM [2]: 142%

SMILES: COc1cc(OC)c2c(c1)OCCC1=C2NC(N)=NC1c1cccc(F)c1 (stereo unspecified)
- inhibition at 5 µM [1]: 74.3%
- viability at 24 h, 5 µM [2]: 120%

SMILES: COc1cc(OC)c2c(c1)OCCC1=C2NC(N)=NC1c1ccc(C(F)(F)F)cc1 (stereo unspecified)
- inhibition at 5 µM [1]: 72.1%
- viability at 24 h, 5 µM [2]: 150%

SMILES: COc1cc(OC)c2c(c1)OCCC1=C2NC(N)=NC1c1ccccc1F (stereo unspecified)
- inhibition at 5 µM [1]: 73.4%
- viability at 24 h, 5 µM [2]: 143%

SMILES: COc1cc(OC)c2c(c1)OCC/C(=C\c1ccccc1F)C2=O
- inhibition at 5 µM [1]: 62.1%
- viability at 24 h, 5 µM [2]: 146%

SMILES: COc1cc(OC)c2c(c1)OCCC1=C2NC(N)=NC1c1cc(C(F)(F)F)cc(C(F)(F)F)c1 (stereo unspecified)
- inhibition [4]: Active
- inhibition [5]: Active
- inhibition at 5 µM [1]: 94.5%
- Activity [6]: inactive
- inhibition [7]: Active
- Activity [8]: Active
- Activity [9]: Active
- Activity [10]: inactive
- Activity [11]: Active
- Activity [12]: Active
- Activity [13]: inactive
- Activity [14]: Active
- Activity [15]: Active
- Activity [16]: Active
- Activity [17]: Active
- Activity [18]: inactive
- Activity [19]: Active
- Activity [20]: Active
- Activity [21]: inactive
- Activity [22]: Active
- Activity [23]: inactive
- Activity [24]: Active
- Activity [25]: inactive
- Activity [26]: Active
- Activity [27]: Active
- Activity [28]: Active
- Activity [29]: Active
- Activity [30]: inactive
- viability at 24 h, 5 µM [2]: 151%

SMILES: COc1cc(OC)c2c(c1)OCCC1=C2NC(N)=NC1c1cc(F)cc(F)c1 (stereo unspecified)
- inhibition at 5 µM [1]: 76.8%
- viability at 24 h, 5 µM [2]: 128%

SMILES: COc1cc(OC)c2c(c1)OCCC1=C2NC(N)=NC1c1ccc(F)cc1 (stereo unspecified)
- inhibition at 5 µM [1]: 56.8%
- viability at 24 h, 5 µM [2]: 157%

SMILES: COc1cc(OC)c2c(c1)OCC/C(=C\c1cc(C(F)(F)F)cc(C(F)(F)F)c1)C2=O
- inhibition at 5 µM [1]: 88.6%
- viability at 24 h, 5 µM [2]: 95%

SMILES: COc1cc(OC)c2c(c1)OCCC1=C2NC(N)=NC1c1cccc(F)c1C(F)(F)F (stereo unspecified)
- inhibition at 5 µM [1]: 72.3%
- viability at 24 h, 5 µM [2]: 95.4%
